Test results reported in patent US6306879A, “Stable aqueous solution of 3-(1-oxo-1,3-dihydroisoindol-2-yl)-piperidine-2-6-dione” (Gruenenthal GmbH, priority 1999, dated 2001).

How the values were obtained:
[1] = Stability testing of the EM 12 solution over 2 weeks; format: physicochemical; conditions: after 2 weeks; 200 μg/ml in 5% glucose, pH 5.5, room temperature
Source text: The solution was stored at room temperature. The pH of the final solution was 5.5.
Portions of the solutions were repeatedly taken as samples for analysis over a period of 2 weeks.

[2] = system: TNF-α production of LPS-activated monocytes; assay: TNF-α production of LPS-activated monocytes (sandwich ELISA); format: cell-based; conditions: LPS-activated human monocytes
Experimental: (§1) In order to investigate the immunomodulatory efficacy of the solutions produced, human monocytes were isolated from peripheral blood mononuclear cells (PBMCs) and were activated with bacterial LPS (lipopolysaccharide). The concentration of TNF-α and IL-12 in the supernatant liquors from all cell cultures was determined by means of sandwich ELISAs (Biosource Europe, Fleurus, Belgium).

[3] = Spontaneous hydrolysis of EM 12 in aqueous solution; format: physicochemical
[4] = system: IL-12 production of LPS-activated monocytes; assay: IL-12 production of LPS-activated monocytes (sandwich ELISA); format: cell-based; conditions: LPS-activated human monocytes
Experimental: as §1

[5] = Arch. Pharm. 321, 371 (1988); cited from earlier work
[6] = system: severe aphthous stomatitis; conditions: cited from earlier work
[7] = system: cutaneous lupus erythematodes, pyoderma gangrenosum, urogenital ulcers in Bechet's syndrome, ulcerations in those infected with HIV; conditions: without resulting in general immunosuppression; cited from earlier work

Structure (SMILES)	EM 12 present in solution after storage [1]	biological efficacy after storage [1]	TNF-α concentration in supernatant ([2]; EM 12 2 μg/ml) [pg/mL]	TNF-α concentration in supernatant ([2]; EM 12 10 μg/ml) [pg/mL]	spontaneous hydrolysis ([3]; aqueous EM 12 solution, pH less than or equal to 5.5)	tendency to undergo spontaneous hydrolysis ([3]; aqueous solutions)	IL-12 concentration in supernatant ([4]; EM 12 2 μg/ml) [pg/mL]	IL-12 concentration in supernatant ([4]; EM 12 10 μg/ml) [pg/mL]	solubility in water [5]	efficacy vs classical immunosuppressants [6]	efficacy [7]
O=C1CCC(N2Cc3ccccc3C2=O)C(=O)N1 (racemic) [EM 12, 3-(1-oxo-1,3-dihydroisoindol-2-yl)-piperidine-2,6-dione]	still present	retained its full biological efficacy	9915	9548	does not occur	tendency of EM 12 to undergo spontaneous hydrolysis	528	464	–	–	–
O=C1CCC(N2C(=O)c3ccccc3C2=O)C(=O)N1 (centres unmarked) [Thalidomide, 2-(2,6-dioxo-piperidin-3-yl)-isoindole-1,3-dione]	–	–	–	–	–	–	–	–	low	superior	good efficacy
